Data from PubChem BioAssay (NCI).
“And” between values parts separate entries of the source, which are not always exact repeats. Equal entries are not always repeated.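 Interpolation was linear, between the two tested concentrations surrounding the appropriate level; five concentrations were tested over 48 hours in 96-well plates. GI50: concentration for 50% inhibition of growth. TGI is the concentration that stops growth completely.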

Legend:
Assay in all cases: growth of human tumour cells (NCI), 48 h
[1] = system: SK-MEL-28 melanoma
[2] = system: ACHN renal
[3] = system: SK-MEL-5 melanoma
[4] = system: HCT-15 colon
[5] = system: MOLT-4 leukemia
[6] = system: SK-MEL-2 melanoma
[7] = system: SF-295 CNS
[8] = system: NCI-H23 lung
[9] = system: MALME-3M melanoma

Work on COc1cc2c3cc1Oc1c(OC)c(OC)cc4c1[C@@H](Cc1ccc(O)c(c1)Oc1ccc(cc1)C[C@@H]3N(C)CC2)N(C)CC4 yielded a TGI [1] of 29.5 µM, a TGI [2] of 38.1 µM and a TGI [3] of 11.8 µM. It also gave a TGI [4] of 27.2 µM, a TGI [5] of 34.2 µM and a TGI [6] of 30.9 µM. It also gave a TGI [7] of 30.9 µM, a TGI [8] of 61.3 µM and a TGI [9] of 31.7 µM.
With Cc1cc(Cl)ccc1N=C1NC(=O)C(CC(=O)Nc2cccc(C)c2C)S1 (configuration not stated) the TGI [1] was > 100 µM, the TGI [2] was 73.6 µM and the TGI [3] was 41.4 µM. For the same compound, the TGI [4] was > 100 µM, the TGI [5] was > 100 µM and the TGI [6] was 46.9 µM. The TGI [7] was 81.2 µM, the TGI [8] was 52.1 µM and the TGI [9] was 65.1 µM.
For CN(CCCN1C(=O)c2cccc3cc([N+](=O)[O-])cc(c23)C1=O)CCN(C)CCCN1C(=O)c2cccc3cc([N+](=O)[O-])cc(c23)C1=O, the TGI [1] was > 39.3 µM, the TGI [2] was > 39.3 µM and the TGI [3] was > 39.3 µM. For the same compound, the TGI [4] was > 39.3 µM, the TGI [5] was > 39.3 µM and the TGI [6] was > 39.3 µM. The TGI [7] was > 39.3 µM, the TGI [8] was > 39.3 µM and the TGI [9] was > 39.3 µM.
COc1cc(C2c3cc4c(cc3[C@@H](Nc3ccc([N+](=O)[O-])cc3)C3COC(=O)[C@H]23)OCO4)cc(OC)c1O (some centres not stated) showed a TGI [1] of 34.8 µM, a TGI [2] of 2.82 µM and a GI50 [3] of 0.74 µM. The TGI [3] was 3.94 µM, the TGI [4] was 19.6 µM and the GI50 [5] was 0.0342 µM. The TGI [5] was 0.544 µM and 0.442 µM, the TGI [6] was 10.7 µM and the TGI [7] was 4.85 µM. It also gave a GI50 [8] of 0.341 µM, a TGI [8] of 4.12 µM and a GI50 [9] of 0.943 µM. The TGI [9] was 10.5 µM.
CCOC(=O)C(=O)Nc1c(C)cccc1C(C)(C)C was tested, and the TGI [1] was > 100 µM, the TGI [2] was > 100 µM and the TGI [3] was > 100 µM. For the same compound, the TGI [4] was > 100 µM, the TGI [5] was > 100 µM and the TGI [6] was > 100 µM. The TGI [7] was > 100 µM, the TGI [8] was > 100 µM and the TGI [9] was > 100 µM.
In the case of CC(C)N1C(C)[C@@H](c2ccccc2)O[P@@]1(=O)CC1=CCCCC1 (some centres not stated), the TGI [1] is reported as > 100 µM, the TGI [2] is reported as > 100 µM and the TGI [3] is reported as > 100 µM. The TGI [4] was > 100 µM, the TGI [5] was > 100 µM and the TGI [6] was > 100 µM. For the same compound, the TGI [7] was > 100 µM, the TGI [8] was > 100 µM and the TGI [9] was > 100 µM.
Compound O=[N+]([O-])c1cccc(S(=O)(=O)N/N=C/c2cc(I)cc([N+](=O)[O-])c2O)c1 has a TGI [1] of 87.9 µM, a TGI [2] of 95.8 µM and a TGI [3] of 44 µM. It also gave a TGI [4] of 65.5 µM, a TGI [5] of 81.5 µM and a TGI [6] of 39 µM. For the same compound, the TGI [7] was 98.7 µM, the TGI [8] was 42.4 µM and the TGI [9] was 64.2 µM.
With Nn1c(-c2cccc(Cl)c2)nc2ccccc2c1=O the TGI [1] was > 100 µM, the TGI [2] was > 100 µM and the TGI [3] was > 100 µM. The TGI [4] was > 100 µM, the TGI [5] was > 100 µM and the TGI [6] was > 100 µM. The TGI [7] was > 100 µM, the TGI [8] was > 100 µM and the TGI [9] was > 100 µM.
With O=[N+]([O-])c1ccc(C2SCc3nc4ccccc4n32)cc1 (configuration not stated) the TGI [1] was > 100 µM, the TGI [2] was > 100 µM and the TGI [3] was 39.2 µM. The TGI [5] was > 100 µM, the TGI [6] was > 100 µM and the TGI [7] was > 100 µM. The TGI [8] was > 100 µM and the TGI [9] was > 100 µM.
With CC(=O)[CH-]C(=O)c1ccccc1.CC(=O)[CH-]C(=O)c1ccccc1.CC[C@H](/C=C/C(C)[C@H]1CCC2[C@@H]3CC=C4C[C@@H]([O-])CC[C@]4(C)C3CC[C@@]21C)C(C)C.CC[C@H](/C=C/C(C)[C@H]1CCC2[C@@H]3CC=C4C[C@@H]([O-])CC[C@]4(C)C3CC[C@@]21C)C(C)C.Cl.[Ti+4] (some centres not stated) the GI50 [1] was 6.08 µM, the TGI [1] was > 25 µM and the GI50 [2] was > 25 µM. The TGI [2] was > 25 µM, the GI50 [3] was > 25 µM and the TGI [3] was > 25 µM. For the same compound, the GI50 [4] was > 25 µM, the TGI [4] was > 25 µM and the GI50 [5] was > 25 µM. For the same compound, the TGI [5] was > 25 µM, the GI50 [6] was > 25 µM and the TGI [6] was > 25 µM. For the same compound, the GI50 [7] was > 25 µM, the TGI [7] was > 25 µM and the GI50 [8] was > 25 µM. The TGI [8] was > 25 µM, the GI50 [9] was 10.5 µM and the TGI [9] was > 25 µM.
For CCOC(=O)/C(C#N)=C\Sc1ccccc1, the TGI [1] was 42.8 µM, the TGI [2] was 47.1 µM and the TGI [3] was > 100 µM. For the same compound, the TGI [5] was 67.3 µM, the TGI [6] was 74.3 µM and the TGI [7] was 48.5 µM. For the same compound, the TGI [8] was > 100 µM.
For COc1cc([C@@H]2OC(=O)C3C2C(=O)O[C@H]3c2ccc(O)c(OC)c2)ccc1O (some centres not stated), the TGI [1] was > 100 µM, the TGI [2] was > 100 µM and the TGI [3] was > 100 µM. The TGI [4] was > 100 µM, the TGI [5] was > 100 µM and the TGI [7] was > 100 µM. The TGI [8] was > 100 µM and the TGI [9] was > 100 µM.
O=C(COC(=O)c1cccc2c(=O)c3ccccc3[nH]c12)Nc1ccc(Cl)cc1 was tested, and the TGI [1] was > 100 µM, the TGI [2] was > 100 µM and the TGI [3] was > 100 µM. The TGI [5] was > 100 µM, the TGI [7] was > 100 µM and the TGI [8] was 64.2 µM. For the same compound, the TGI [9] was > 100 µM.
For COc1cccc2c(SCC(=O)Nc3ccccc3-c3ccccc3NC(=O)CSc3c4ccccc4nc4c(OC)cccc34)c3ccccc3nc12, the TGI [1] was > 100 µM, the TGI [2] was > 100 µM and the TGI [3] was > 100 µM. For the same compound, the TGI [4] was > 100 µM, the TGI [5] was > 100 µM and the TGI [6] was > 100 µM. The TGI [7] was > 100 µM and the TGI [8] was > 100 µM.
In the case of COC(=O)C12C34C=CC5(CCC6(C=CC1(CC3)O6)C52C(=O)OC)O4 (configuration not stated), the TGI [1] is reported as > 100 µM, the TGI [2] is reported as > 100 µM and the TGI [5] is reported as > 100 µM. For the same compound, the TGI [6] was > 100 µM, the TGI [7] was > 100 µM and the TGI [8] was > 100 µM. The TGI [9] was > 100 µM.
For NC(=O)C(=O)C1C(=O)N(c2ccccc2)N=C1N (configuration not stated), the TGI [1] was > 100 µM, the TGI [2] was > 100 µM and the TGI [4] was > 100 µM. The TGI [5] was > 100 µM, the TGI [6] was > 100 µM and the TGI [7] was > 100 µM. The TGI [8] was > 100 µM and the TGI [9] was > 100 µM.
